Laboratory results reported in patent publication US20080286215A1, “Method of Preventing Oral Staining” (priority 2005, published 2008).
Like-named read-outs stand apart in the source and are kept apart here.

What was measured:
[1] = seven-day twice-daily mouthwash swilling, staining of teeth and tongue; format: in vivo; conditions: 0.2% mouthwash swilled twice daily for seven days
Procedure: FIG. 1 panel B illustrates staining of the teeth caused when contacted over a seven-day period with Chlorhexidine 0.2% twice daily for one minute (panel A is a control showing seven days rinsing with Delmopinol 0.2% twice daily 10 ml for one minute);
FIG. 2 panel B illustrates staining of the tongue when contacted over a seven day period with Chlorhexidine 0.2% twice daily for one minute (panel A is a control showing seven days rinsing with Delmopinol 0.2% twice daily 10 ml for one minute); and
A subject swilled their mouth twice daily with a 0.2% chlorhexidine mouthwash for seven days.
As a separate control, the subject swilled their mouth twice daily with a 0.2% delmopinol mouthwash for seven days.

[2] = prolonged use, some subjects, noticed by dentists in some studies; cited from earlier work
[3] = removal of chlorhexidine staining by a single one-minute brushing of the teeth; format: in vivo; conditions: subject with staining after seven days of chlorhexidine, brushed once, toothbrush soaked in 0.2% mouthwash
From the text: FIG. 3 illustrates the removal of Chlorhexidine stains seen in FIG. 1(B) by brushing the teeth for one minute with a toothbrush that has been soaked in 0.2% delmopinol. The subject with chlorhexidine staining (after the seven day usage of chlorhexidine) brushed their teeth once, for one minute, using a toothbrush soaked in a 0.2% delmopinol mouthwash.

| staining of the teeth [1] | staining of the tongue [1] | SMILES | staining of the teeth [2] | removal of chlorhexidine staining of the teeth [3] |
| --- | --- | --- | --- | --- |
| No staining was observed | No staining was observed | CCCC(CCC)CCCC1COCCN1CCO (stereo not drawn) [delmopinol, 3-(4-propyl-heptyl)-4-(2-hydroxyethyl)morpholine] | mild staining of the teeth | removed the staining of the teeth |
| characteristic staining of the teeth | the tongue was also stained | [H]/N=C(\N/C(=N/[H])NCCCCCCNC(=N)NC(=N)Nc1ccc(Cl)cc1)Nc1ccc(Cl)cc1 [chlorhexidine, reference compound] | – | – |
